Assay results taken from patent US8063043B2, “Salts of N-[6-cis-2,6-dimethylmorpholin-4-yl)pyridine-3-yl]-2-methyl-4′-(trifluoromethoxy)[1,1′-biphenyl]-3-carboxamide” (Novartis AG, priority 2008, dated 2011).
Where “and” joins values, the source holds several entries; their conditions need not be identical. Equal values may be shown once. Read-outs that look alike come from different tables or passages of the source.

Key:
[1] = Stability: appearance color (CL); type: physicochemical
[2] = Hygroscopicity, DVS sorption/desorption isotherms; type: physicochemical; settings: for DVS Desorp. Weight % chg. / DVS Sorp. Weight % chg.: 25° C.
Experimental: Sorption/desorption isotherms: Instrument, Surface Measurement System DVS-1 temperature at 25±0.5° C.

[3] = pH of 1% solution or suspension; type: physicochemical; settings: In water
Experimental: The solutions were stirred continuously as the pH was measured.

physchem = settings: 25 °C, thermodynamic from solid, Solubility (approx. at 25° C., mg/ml)
[4] = Solid form after stress test (XRPD/DSC); type: physicochemical; settings: for Bulk (DSC): change: 2 week 80° C.
[5] = Bulk corrosivity with stainless steel coupon; type: physicochemical; settings: 2 day 80% r.h. with stainless steel coupon; change in the surface of the coupon
[6] = Stability measured by degradation products (DP, HPLC area-%); type: physicochemical
Experimental: DPs are analyzed by HPLC (method see Table 3). They are calculated as area-% products. Compositions of the mixtures in mass % are as follows.
For salts in water, acetonitrile was added to dilute the 0.2% slurry to 0.1% clear solution. For salts in methanol, acetonitrile or acetonitrile/water (50:50, v/v), the corresponding solvent or solvent mixture was added to dilute the 0.2% slurry to 0.1% clear solution. For salts in 0.5% CMC, HPMC cellulose 4000 0.5%, or Tween 80, 0.8%, tetrahydrofuran and water were added to dilute the 2% slurry to 0.1% clear solution and to reach tetrahydrofuran/water 50:50 (v/v). For bulk stability samples (including the samples in excipient mixtures), acetonitrile/water (80:20, v/v) was added to make 0.1% clear solution.

[7] = pH 6.8
[8] = Crystal modification after 72 hours vibration (polymorphism behavior of slurries); type: physicochemical
Excerpt: The slurries were filtered and the solids collected for XRPD analyses.

[9] = Thermogravimetry (weight loss / loss on drying); type: physicochemical; settings: at 150° C.; for Thermogravimetry (weight loss in %): Heating rate 10° C./min; for Loss on drying by TGA (%): Hygroscopicity, as is
[10] = Approximate solubility at 25° C.; settings: thermodynamic from solid
[11] = Wistar rats, 10 mg/kg, suspension
in vivo = settings: Wistar, rat, 10 mg/kg, Wistar rats, suspension
[12] = 0.2% solutions or suspensions, 2 week 50° C., Acetonitrile/Water (50:50), clear solution after stress test (*)
[13] = 0.2% solutions or suspensions, 2 week 50° C., Acetonitrile, clear solution after stress test (*)
[14] = 0.2% solutions or suspensions, 2 week 50° C., Methanol, clear solution after stress test (*)
[15] = 0.2% solutions or suspensions, 2 week 50° C., Water, suspension (↓)
[16] = 2% (or 5%) solutions or suspensions, 1 day room temperature, 0.5% CMC, suspension (↓)
[17] = 2% (or 5%) solutions or suspensions, 1 day room temperature, HPMC Cellulose 4000 0.5%, suspension (↓)
[18] = 2% (or 5%) solutions or suspensions, 1 day room temperature, Tween 80, 0.8%, suspension (↓)
[19] = Solid state, 2 week 50° C., tight container
[20] = Solid state, 2 week 50° C./75% r.h., footnote: new peak in the XRPD pattern compared with unstressed diphosphate
[21] = Solid state, 2 week 80° C./75% r.h., footnote: pattern similar to that of phosphate, with one extra peak
[22] = Xenon light (approx. 1200 kLuxh)
[23] = 0.2% solutions or suspensions, 2 week 50° C., Acetonitrile
[24] = 0.2% solutions or suspensions, 2 week 50° C., Acetonitrile/Water (50:50)
[25] = 0.2% solutions or suspensions, 2 week 50° C., Methanol
[26] = 0.2% solutions or suspensions, 2 week 50° C., Water
[27] = 2% (or 5%) solutions or suspensions, 1 day room temperature, 0.5% CMC
[28] = 2% (or 5%) solutions or suspensions, 1 day room temperature, HPMC Cellulose 4000 0.5%
[29] = 2% (or 5%) solutions or suspensions, 1 day room temperature, Tween 80, 0.8%
[30] = 2 weeks 50° C., tight container, 1% in mixture 1 (Lactose/maize starch/Aerosil/Magnesiumstearate)
[31] = 2 weeks 50° C., tight container, 1% in mixture 2 (Mannitol/Avicel PH 102/Cutina HR)
[32] = 2 weeks 50° C./75% r.h., 1% in mixture 1
[33] = 2 weeks 50° C./75% r.h., 1% in mixture 2
[34] = Solid state, 2 week 50° C., tight container, Bulk (HPLC)
[35] = Solid state, 2 week 50° C./75% r.h., Bulk (HPLC)
[36] = Solid state, 2 week 80° C., tight container, Bulk (HPLC)
[37] = Solid state, 2 week 80° C./75% r.h., Bulk (HPLC)
[38] = Unstressed drug substance, bulk
[39] = Xenon light (approx. 1200 kLuxh), Bulk (HPLC)
[40] = individual rats, listed as Compound A Sulfate, monosulfate salt

Cc1c(C(=O)Nc2ccc(N3C[C@@H](C)O[C@@H](C)C3)nc2)cccc1-c1ccc(OC(F)(F)F)cc1.Cl [Hydrochloride, mono]
CL [1, 12]: A * | CL [1, 13]: A * | CL [1, 14]: A * | CL [1, 15]: A ↓ | CL [1, 16]: A ↓ | CL [1, 17]: A ↓ | CL [1, 18]: A ↓ | XRPD after DVS test [2]: No change | DVS Desorp. Weight % chg. ([2]; RH 0.0%): −0.0114% | DVS Sorp. Weight % chg. ([2]; RH 0.0%): −0.0001% | DVS Desorp. Weight % chg. ([2]; RH 25.0%): 0.3799% | DVS Sorp. Weight % chg. ([2]; RH 25.0%): 0.3334% | DVS Desorp. Weight % chg. ([2]; RH 50.0%): 0.4932% | DVS Sorp. Weight % chg. ([2]; RH 50.0%): 0.4660% | DVS Desorp. Weight % chg. ([2]; RH 75.0%): 0.6069% | DVS Sorp. Weight % chg. ([2]; RH 75.0%): 0.5753% | DVS Desorp. Weight % chg. ([2]; RH 85.0%): 0.6817% | DVS Sorp. Weight % chg. ([2]; RH 85.0%): 0.6525% | DVS Desorp. Weight % chg. ([2]; RH 95.0%): 0.8784% | DVS Sorp. Weight % chg. ([2]; RH 95.0%): 0.8784% | pH of 1% solution or suspension [3]: 1.69 | solubility at 1 day (physchem; pH 1, simulated gastric fluid): 2 µg/mL | solubility at 1 day (physchem; water): 5 µg/mL | Bulk (XRPD): change [4, 19]: No | Bulk (XRPD): change [4, 20]: No | Bulk (DSC): change ([4]; Solid state, tight container): No | Bulk (XRPD): change [4, 21]: No | Bulk (XRPD): change [4, 22]: No | Bulk corrosivity [5]: No visible change | DP [%] [6, 23]: 0.38% | DP [%] [6, 24]: 1.72% | DP [%] [6, 25]: 2.06% | DP [%] [6, 26]: 0.31% | DP [%] [6, 27]: 0.33% | DP [%] [6, 28]: 0.32% | DP [%] [6, 29]: 0.31% | DP [%] [6, 30]: 0.27% | DP [%] [6, 31]: 0.39% | DP [%] [6, 32]: 2.85% | DP [%] [6, 33]: 0.31% | DP [%] [6, 34]: 0.31% | DP [%] [6, 35]: 0.29% | DP [%] [6, 36]: 0.35% | DP [%] [6, 37]: 0.35% | DP [%] [6, 38]: 0.30% | DP [%] [6, 39]: 1.46% | Solubility (approx. at 25° C., mg/ml) ([7]; 1 day): 0.000 (Final mg/ml | Final pH of solubility sample [7]: pH 5.93) | Crystal modification after 72 hours vibration (DSC/XRPD/TG) ([8]; 0.1N HCl solution): XRPD pattern | Crystal modification after 72 hours vibration (DSC/XRPD/TG) ([8]; Acetone, N—no, Y—yes): N, no form change | Crystal modification after 72 hours vibration (DSC/XRPD/TG) ([8]; Acetonitrile, N—no, Y—yes): N, no form change | Crystal modification after 72 hours vibration (DSC/XRPD/TG) ([8]; Ethanol, N—no, Y—yes): N, no form change | Crystal modification after 72 hours vibration (DSC/XRPD/TG) ([8]; Ethyl acetate, N—no, Y—yes): N, no form change | Crystal modification after 72 hours vibration (DSC/XRPD/TG) ([8]; Iso Propanol, N—no, Y—yes): N, no form change | Crystal modification after 72 hours vibration (DSC/XRPD/TG) ([8]; Water): Dissociated to free | Final pH of slurry ([8]; Water): Final pH 1.94 | Crystal modification after 72 hours vibration (DSC/XRPD/TG) ([8]; pH 3 buffer): Dissociated to free | Final pH of slurry ([8]; pH 3 buffer): Final pH 2.89 | Crystal modification after 72 hours vibration (DSC/XRPD/TG) ([8]; pH 6.8 buffer): No form change | Final pH of slurry ([8]; pH 6.8 buffer): Final pH 5.93 | Thermogravimetry (weight loss in %) [9]: 0.48% at 150 °C | Loss on drying by TGA (%) [9]: 0.48 at 150 °C %

Cc1c(C(=O)Nc2ccc(N3C[C@@H](C)O[C@@H](C)C3)nc2)cccc1-c1ccc(OC(F)(F)F)cc1.O=S(=O)(O)O [Sulfate, mono]
CL [1, 12]: A * | CL [1, 13]: A * | CL [1, 14]: A * | CL [1, 15]: A ↓ | CL [1, 16]: A ↓ | CL [1, 17]: A ↓ | CL [1, 18]: A ↓ | XRPD after DVS test [2]: No change | DVS Desorp. Weight % chg. ([2]; RH 0.0%): 1.007% | DVS Sorp. Weight % chg. ([2]; RH 0.0%): 0.000% | DVS Desorp. Weight % chg. ([2]; RH 25.0%): 1.256% | DVS Sorp. Weight % chg. ([2]; RH 25.0%): 1.232% | DVS Desorp. Weight % chg. ([2]; RH 50.0%): 1.495% | DVS Sorp. Weight % chg. ([2]; RH 50.0%): 1.455% | DVS Desorp. Weight % chg. ([2]; RH 75.0%): 1.716% | DVS Sorp. Weight % chg. ([2]; RH 75.0%): 1.634% | DVS Desorp. Weight % chg. ([2]; RH 95.0%): 2.330% | DVS Sorp. Weight % chg. ([2]; RH 95.0%): 2.330% | pH of 1% solution or suspension [3]: 1.45 | solubility at 1 day ([10]; 0.1N HCl, pH 1, simulated gastric fluid): 3 µg/mL | solubility at 1 day ([10]; 2-propanol, organic solvent or mixture): 4000 µg/mL | solubility at 1 day ([10]; acetone, organic solvent or mixture): 1700 µg/mL | solubility at 1 day ([10]; acetonitrile, organic solvent or mixture): 1400 µg/mL | solubility at 1 day ([10]; ethanol, organic solvent or mixture): 19700 µg/mL | solubility at 1 day ([10]; ethyl acetate, organic solvent or mixture): 90 µg/mL | solubility at 1 day ([10]; methanol, organic solvent or mixture): 24400 µg/mL | solubility at 1 day ([10]; phosphate buffer, pH 6.8, aqueous buffer): 2 µg/mL | solubility at 1 day ([10]; water): 7 µg/mL | Bulk (XRPD): change [4, 19]: No | Bulk (XRPD): change [4, 20]: No | Bulk (DSC): change ([4]; Solid state, tight container): No | Bulk (XRPD): change [4, 21]: No | Bulk (XRPD): change [4, 22]: No | less exposure in-vivo than the diphosphate salt [11]: about 40% | AUC0-24/dose [11, 40]: 2590 (ng*h/mL)/(mg/kg/day) and 2870 (ng*h/mL)/(mg/kg/day) and 3620 (ng*h/mL)/(mg/kg/day) | Cmax [11, 40]: 1860 ng/mL and 3560 ng/mL | Cmax/Dose [11, 40]: 190 (ng/mL)/(mg/kg/day) (2×) and 360 (ng/mL)/(mg/kg/day) | tmax [11, 40]: 4 h and 2 h and 1 h | Bulk corrosivity [5]: No visible change | DP [%] [6, 23]: 0.44% | DP [%] [6, 24]: 0.80% | DP [%] [6, 25]: 0.68% | DP [%] [6, 26]: 0.41% | DP [%] [6, 27]: 0.45% | DP [%] [6, 28]: 0.47% | DP [%] [6, 29]: 0.43% | DP [%] [6, 30]: 0.41% | DP [%] [6, 31]: 0.44% | DP [%] [6, 32]: 0.70% | DP [%] [6, 33]: 0.41% | DP [%] [6, 34]: 0.40% | DP [%] [6, 35]: 0.42% | DP [%] [6, 36]: 0.43% | DP [%] [6, 37]: 1.34% | DP [%] [6, 38]: 0.42% | DP [%] [6, 39]: 1.1% | Crystal modification after 72 hours vibration (DSC/XRPD/TG) ([8]; 0.1N HCl solution): XRPD pattern | Crystal modification after 72 hours vibration (DSC/XRPD/TG) ([8]; Acetonitrile, N—no, Y—yes): N, no form change | Crystal modification after 72 hours vibration (DSC/XRPD/TG) ([8]; Ethanol, N—no, Y—yes): N, no form change | Crystal modification after 72 hours vibration (DSC/XRPD/TG) ([8]; Ethyl acetate, N—no, Y—yes): N, no form change | Crystal modification after 72 hours vibration (DSC/XRPD/TG) ([8]; Iso Propanol, N—no, Y—yes): N, no form change | Crystal modification after 72 hours vibration (DSC/XRPD/TG) ([8]; Water): Dissociated to free | Final pH of slurry ([8]; Water): Final pH 1.26 | Crystal modification after 72 hours vibration (DSC/XRPD/TG) ([8]; pH 3 buffer): Dissociated to free | Final pH of slurry ([8]; pH 3 buffer): Final pH 2.00 | Crystal modification after 72 hours vibration (DSC/XRPD/TG) ([8]; pH 6.8 buffer): Dissociated to free | Final pH of slurry ([8]; pH 6.8 buffer): Final pH 1.82 | Thermogravimetry (weight loss in %) [9]: 1.89% at 150 °C | Loss on drying by TGA (%) [9]: 1.89 at 150 °C % | Cmax (in vivo; Cmax, individual rats): 1900 ng/mL | tmax (in vivo; mean tmax): 2.3 h
